From US6699861B1, “Anti-quinazoline compounds” (Cancer Research Technology Limited, priority 1999, dated 2004)
Several values for one entry are separate records, joined by “and”; a condition that tells them apart may be missing. Equal entries are not always repeated. Where two headings read alike, the source gives them in different places.

Tests used:
[1] = test system: W1L2 cells; assay: Growth inhibition of W1L2 in presence of folate metabolites (dThd/HX); assay type: cell-based, human; conditions: Homo sapiens; in the presence of 10 μM thymidine (dThd) and 50 μM hypoxantine (HX); read-out: Inhibition of Cell Growth IC50, W1L2 + dThd/HX (C)
Experimental: Growth inhibition assays as described above were performed in W1L2 cells where compounds were incubated in the presence of 10 μM thymidine (dThd) and 50 μM hypoxantine (HX) (purchased from Sigma Chemical Co.).

[2] = test system: W1L2 human lymphoblastoid cells; assay: Growth inhibition of W1L2 cells; assay type: cell-based
[3] = test system: W1L2:R865 cell line; assay: Growth inhibition of W1L2:R865 cells (acquired resistance to CB 30865); assay type: cell-based, human; conditions: 72 h growth inhibition assay (Coulter counts), read-out: Inhibition of Cell Growth IC50, W1L2:R865 (D)
Experimental: A cell line was raised with acquired resistance to CB 30865, denoted W1L2:R865, by stepwise selection over ˜9 months.
The generated W1L2:R865 cell line was routinely cultured in 0.03 μm CB 30865 under the same conditions as W1L2 cells, with cells being grown in the absence of CB 30865 for ˜2 weeks before an experiment.
The activity of compounds against W1L2:R865 cells was determined within parallel experiments by 72 h growth inhibition assay (Coulter counts). CB 30865 was included in every experiment as an internal control.

[4] = test system: W1L2:C1 cells; assay: Growth inhibition of W1L2:C1 cells (elevated TS); assay type: cell-based, human; conditions: read-out: Inhibition of Cell Growth IC50, W1L2:C1 (B)
Experimental: (§1) W1L2 human lymphoblastoid, W1L2:C1 (elevated TS; O'Connor et al, Cancer Res, 52, 1137-1143 (1992)) and L1210 mouse leukaemia cells were cultured in suspension and A2780, PXN94, 41M, HX62, SKOV3 (human ovarian carcinoma), MCF-7 (human breast carcinoma), HT29 and SW480 (human colon carcinoma) cell lines were grown as monolayers as described in Jackman et al, Cancer Res, 50, 5212-5218 (1990) and Jackman et al, Br. J. Cancer, 71, 914-924 (1995).
(§2) Growth inhibition studies with suspension cells were performed as described in Jackman et al, Cancer Res, 50, 5212-5218 (1990). Activity against the adherent cell lines was assessed by MTT assay (Twentyman et al, Br. J. Cancer, 56, 279-285 (1987)) where cells were seeded in 96-well plates at 1000-3000 cells per well, incubated overnight and then exposed to the appropriate drug concentrations for 96-120 h.

[5] = background statement on the known compound; cited from earlier work
[6] = test system: HT29 colon line; assay: Hollow fibre assay, HT29 cells; assay type: in vivo, nude mice; conditions: for O.D. as % control: harvested day 5
Experimental: (§3) As adopted by the NCI, the hollow fibre assay (Hollingshead et al. 1995, Life Sciences, 57: 13 1-141) was used as an initial means of assessing the in vivo antitumour activity of CB 300919.
(§4) The hollow fibre assay was performed using the CH1 ovarian carcinoma cell line and the HT29 colon line.
(§5) Results are expressed as a % Treated/Control (T/C).

[7] = biological target: mouse thymidylate synthase (TS) (Mus musculus, UniProt P07607); assay: Inhibition of L1210 thymidylate synthase (TS)
[8] = Tolerability (weight loss, deaths, MTD) in nude mice
Experimental: One day later (day 1), CB 300919 was administered by ip injection, daily for 3 days (days 1-3).
Mice injected with CB 300919 i.p. on days 1-3.

[9] = MTD in DBA2 mice; conditions: mouse, in vivo
Experimental: MTD in DBA2 mice ˜1.5 mg/kg/d×3 days.

[10] = test system: CH1 ovarian carcinoma cell line; assay: Hollow fibre assay, CH1 cells; assay type: in vivo, nude mice; conditions: for O.D. as % control: harvested day 5
Experimental: as §3, §4, §5

[11] = test system: HT29 cells; assay: In vitro sensitivity of HT29 cells compared with CH1 cells; assay type: cell-based, human
Experimental: as §1, §2

[12] = 0.25 mg/kg/d i.p. daily x 3 days
[13] = 0.50 mg/kg/d i.p. daily x 3 days
[14] = 0.75 mg/kg/d i.p. daily x 3 days

Sequence of mouse thymidylate synthase (TS) (P07607 whole entry): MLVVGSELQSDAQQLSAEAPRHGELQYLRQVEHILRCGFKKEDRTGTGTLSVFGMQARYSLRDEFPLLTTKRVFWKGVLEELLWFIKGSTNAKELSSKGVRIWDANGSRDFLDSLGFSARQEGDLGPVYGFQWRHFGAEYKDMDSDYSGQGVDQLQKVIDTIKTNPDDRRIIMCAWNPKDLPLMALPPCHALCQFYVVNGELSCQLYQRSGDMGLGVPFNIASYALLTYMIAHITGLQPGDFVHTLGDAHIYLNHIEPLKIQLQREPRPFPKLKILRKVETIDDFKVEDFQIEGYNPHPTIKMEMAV

For C#CCN(Cc1cc2c(=O)[nH]c(C)nc2cc1Br)c1ccc(C(=O)NCc2cccnc2)cc1 [CB30865, 4-[N-[7-bromo-2-methyl-4-oxo-3,4-dihydroquinazolin-6-ylmethyl]-N-(prop-2-ynyl)amino]-N-(3-pyridylmethyl)benzamide, reference compound], the IC50 [1] was 2.2 ± 0.82 nM, the IC50 ([2]; Homo sapiens, Lymphoblastoid cell, W1L2 suspension cells, read-out: Inhibition of Cell Growth IC50, W1L2 (B)) was 2.8 ± 0.5 nM and the IC50 ([2]; Homo sapiens, Lymphoblastoid cell, W1L2 cells, 72 h, read-out: 72 h IC50) was 2.8 nM. The IC50 ([3]; Homo sapiens) was 610 nM, the IC50 ([4]; Homo sapiens) was 2.3 ± 0.15 nM and the water-solubility [5] was “very low water-solubility”.

In the case of C#CCN(Cc1cc2c(=O)n(C)c(CN3CCN(C)CC3)nc2cc1Cl)c1ccc(C(=O)NCc2cccnc2)cc1 [CB300919, 4-[N-[7-Chloro-3-methyl-2-(4-methyl-piperazin-1-yl)methyl-4-oxo-3,4-dihydroquinazolin-6-ylmethyl]-N-(prop-2-ynyl)amino]-N-(3-pyridylmethyl)benzamide], the “O.D. as % control” value [6, 12] is reported as 92%, the “O.D. as % control” value [6, 13] is reported as 34% and the “O.D. as % control” value [6, 14] is reported as 29%. For the same compound, the “Dose to give 50% inhibition of tumour growth” value ([6]; i.p. daily x 3 days) was 0.4 mg/kg/day, the IC50 [1] was 0.32 nM and the IC50 ([2]; W1L2 suspension cells, read-out: Inhibition of Cell Growth IC50, W1L2 (B)) was 0.49 ± 0.24 nM. The IC50 [3] was 13000 ± 4500 nM, the “Inhibition of L1210 TS (A) IRP* (inverse relative potency)” value [7] was greater than 2500 and the “Weight loss (up to day 5)” value [8, 12] was “No sig. wt. loss”. For the same compound, the “Weight loss (up to day 5)” value [8, 13] was 0-19% wt. loss, the “Weight loss (up to day 5)” value [8, 14] was 9-22% wt. loss and the “Comments: mice killed” value ([8]; 0.75 mg/kg/d i.p. daily x 3 days, d4, 22% wt. loss) was “⅓ killed (d4; 22% wt. loss”. For the same compound, the MTD at 3 days ([8]; nude, mouse, in vivo, intraperitoneal) was 0.5 to 0.75 mg/kg/day, the IC50 [4] was 0.44 nM and 0.28 nM and the MTD at 3 days [9] was roughly 1.5 mg/kg/day. The “optical density (% Treated/Control)” value ([10]; CH1 cells in the fibres, all doses given IP (0.25-0.75 mg/kg/day×3 days)) was less than 15%, the “O.D. as % control” value ([10]; CH1 ovarian, 0.25 mg/kg/d i.p. daily x 3 days) was 13% and the “O.D. as % control” value ([10]; CH1 ovarian, 0.50 mg/kg/d i.p. daily x 3 days) was 13%. For the same compound, the “O.D. as % control” value ([10]; CH1 ovarian, 0.75 mg/kg/d i.p. daily x 3 days) was 13%, the “Dose to give 50% inhibition of tumour growth” value ([10]; CH1 ovarian, i.p. daily x 3 days) was less than 0.25 mg/kg/day and the “lower sensitivity of HT29 cells in vitro” value [11] was roughly 10 fold.
